In patent publication US12077503B2, “Substituted cyclic amides and their use as herbicides” (FMC CORPORATION, priority 2015, dated 2024):
Read-outs that look alike come from different tables or passages of the source.

Tests used:
Assay in all cases: Test A postemergence
Format in all cases: in vivo
[1] = test system: giant foxtail (Setaria faberii); conditions: Setaria faberi, post-emergence, 240 h, Postemergence; for pest or weed control at 125 g/ha: 125 g ai/ha; for pest or weed control at 500 g/ha: 500 g ai/ha, visual injury, 0 to 100 scale (0 no effect, 100 complete control), approx. 10 d
How it was run: (§1)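 In a loam soil and sand blend, planted seeds got a preemergence directed soil spray, and young plants at the one- to two-leaf stage, 2–10 cm high, got a postemergence application; ~10 d greenhouse hold; injury rated visually, 0 = none, 100 = complete control.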

corn (Zea mays) = conditions: Zea mays, post-emergence, 240 h, Postemergence; for plant injury at 125 g/ha: visual rating about 10 d after treatment, read-out: Corn plant response rating (0 to 100 scale); for Corn plant response rating (crop injury, 0 = no effect, 100 = complete kill) at 500 g/ha: 500 g ai/ha, visual injury, 0 to 100 scale (0 no effect, 100 complete control), approx. 10 d
How it was run: as §1

[2] = test system: pigweed (Amaranthus retroflexus); conditions: Amaranthus retroflexus, post-emergence, 240 h, Postemergence; for pest or weed control at 125 g/ha: 125 g ai/ha; for pest or weed control at 500 g/ha: 500 g ai/ha, visual injury, 0 to 100 scale (0 no effect, 100 complete control), approx. 10 d
How it was run: as §1

[3] = test system: Galium (catchweed bedstraw, Galium aparine); conditions: Galium, post-emergence, 240 h, Postemergence; for pest or weed control at 125 g/ha: 125 g ai/ha; for pest or weed control at 500 g/ha: 500 g ai/ha, visual injury, 0 to 100 scale (0 no effect, 100 complete control), approx. 10 d
How it was run: as §1

[4] = test system: barnyardgrass (Echinochloa crus-galli); conditions: Echinochloa crus-galli, post-emergence, 240 h, Postemergence; for pest or weed control at 125 g/ha: 125 g ai/ha; for pest or weed control at 500 g/ha: 500 g ai/ha, visual injury, 0 to 100 scale (0 no effect, 100 complete control), approx. 10 d
How it was run: as §1

[5] = visual rating about 10 d after treatment, read-out: Foxtail, Giant plant response rating (0 to 100 scale)
[6] = read-out: Plant response rating, Foxtail, Giant
[7] = visual rating about 10 d after treatment, read-out: Pigweed plant response rating (0 to 100 scale)
[8] = read-out: Plant response rating, Pigweed
[9] = visual rating about 10 d after treatment, read-out: Galium plant response rating (0 to 100 scale)
[10] = read-out: Plant response rating, Galium
[11] = visual rating about 10 d after treatment, read-out: Barnyardgrass plant response rating (0 to 100 scale, 0 no effect, 100 complete control)
[12] = read-out: Plant response rating, Barnyardgrass

Row | Structure (SMILES) | pest or weed control at 125 g/ha [1, 5] | pest or weed control at 500 g/ha [1, 6] | plant injury at 125 g/ha (corn (Zea mays); 125 g ai/ha) | Corn plant response rating (crop injury, 0 = no effect, 100 = complete kill) at 500 g/ha (corn (Zea mays)) | pest or weed control at 125 g/ha [2, 7] | pest or weed control at 500 g/ha [2, 8] | pest or weed control at 125 g/ha [3, 9] | pest or weed control at 500 g/ha [3, 10] | pest or weed control at 125 g/ha [4, 11] | pest or weed control at 500 g/ha [4, 12] | pest or weed control at 125 g/ha ([1]; visual injury after approx. 10 d, 0 to 100 scale, 0 no effect, 100 complete control, read-out: Plant response rating, Foxtail, Giant) | Corn plant response rating (crop injury, 0 = no effect, 100 = complete kill) at 125 g/ha (corn (Zea mays); 125 g ai/ha, visual injury after approx. 10 d, 0 to 100 scale, 0 no effect, 100 complete control) | pest or weed control at 125 g/ha ([2]; visual injury after approx. 10 d, 0 to 100 scale, 0 no effect, 100 complete control, read-out: Plant response rating, Pigweed) | pest or weed control at 125 g/ha ([3]; visual injury after approx. 10 d, 0 to 100 scale, 0 no effect, 100 complete control, read-out: Plant response rating, Galium) | pest or weed control at 125 g/ha ([4]; visual injury after approx. 10 d, 0 to 100 scale, 0 no effect, 100 complete control, read-out: Plant response rating, Barnyardgrass)
1 | Cc1cc(F)cc([C@H]2CNC(=O)[C@@H]2C(=O)Nc2cccc(F)c2F)c1 [Compound 1309] | 30% | 70% | 0% | 20% | 0% | 0% | 30% | 50% | 90% | 90% |  |  |  |  | 
2 | CN1C[C@H](c2ccc3c(c2)CCO3)[C@@H](C(=O)Nc2ccccc2F)C1=O [Compound 1321] | 90% | 90% | 40% | 70% | 0% | 0% | 30% | 50% | 90% | 90% |  |  |  |  | 
3 | O=C1NC[C@H](c2cncs2)[C@H]1C(=O)Nc1ccccc1F [Compound 1335] | 0% | 0% | 0% | 0% | 0% | 0% | 0% | 0% | 0% | 0% |  |  |  |  | 
4 | N#Cc1cc([C@H]2CNC(=O)[C@]2(O)C(=O)Nc2cccc(F)c2F)ccc1F [Compound 1374] | 0% | 0% | 0% | 0% | 0% | 0% | 0% | 0% | 0% | 50% |  |  |  |  | 
5 | CN1C[C@H](c2ccc(C(F)(F)F)cc2)[C@@H](C(=O)Nc2ccccc2C#N)C1=O [Compound 1379] | 80% | 80% | 70% | 70% | 20% | 50% | 40% | 60% | 100% | 100% |  |  |  |  | 
6 | CN1C[C@H](c2ccc(C(F)(F)F)cc2)[C@@H](C(=O)Nc2cccc(C#N)c2F)C1=O [Compound 1381] | 90% | 90% | 40% | 60% | 70% | 70% | 50% | 60% | 80% | 80% |  |  |  |  | 
7 | CN1CC[C@H](c2cccc(C(F)(F)F)c2)[C@@H](C(=O)Nc2ccc(F)c(F)c2F)C1=O [Compound 1395] |  | 90% |  | 70% |  | 0% |  | 0% |  | 90% | 90% | 50% | 0% | 0% | 90%
